Reference: article PMC8222254, “Self-assembly of an anion receptor with metal-dependent kinase inhibition and potent in vitro anti-cancer properties” (Nature Communications, 2021)
“And” between values parts separate entries of the source, which are not always exact repeats. Equal values may be shown once. Read-outs that look alike come from different tables or passages of the source.

Legend:
[1] = molecular target: T1, recombinant human AMPK (α1β2γ1) (Homo sapiens, UniProt Q13131); test: Substrate competition assay (ADP-Glo Kinase Assay); type: biochemical
T1 construct: purchased Promega

[2] = tested on: GBM1 glioblastoma cancer stem cell model; test: Chemosensitivity, 96 h continuous exposure, MTT assay; type: cell-based, human; settings: for IC50: GBM1, 96 h, MTT; for Selectivity Index using the NPI non-cancer cell line: IC50 NP1 / IC50 GBM1; for SI (ARPE19): mean IC50 ARPE-19 / mean IC50 GBM1; for SI (MCF10A): mean IC50 MCF10A / mean IC50 GBM1; for SI (NPI): mean IC50 NP1 / mean IC50 GBM1;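 for SI (NPI): adult human brain neural progenitor non-cancer cells from an epilepsy surgery patient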;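 for Selectivity Index using the NPI non-cancer cell line: adult human brain neural progenitor non-cancer cells from an epilepsy surgery patient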
Outline: (§1)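 Growth inhibition is measured by MTT after cells are dosed for 96 h without washout. The 50% growth-reduction concentration is then interpolated from the curves.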

[3] = tested on: NP1 adult brain neural progenitor cells; test: as above; type: cell-based, human
Outline: as §1

[4] = molecular target: T1, recombinant human AMPK (α1β2γ1); test: Substrate competition assay (ADP-Glo Kinase Assay); type: biochemical; remark: listed apart in the source
Procedure: (§2) ATP competition kinase assays were performed by the MRC Protein Phosphorylation and Ubiquitination Unit International Centre for Kinase Profiling (University of Dundee). Inhibition of recombinant human AMPK (α1β2γ1) by 10μM [L2Cu3]^6+ or [L2Zn3]^6+ was evaluated at five different ATP concentrations (0.5, 2, 20, 200 and 500 µM ATP). Substrate competition assays were performed using the ADP-Glo Kinase Assay (Promega) and recombinant human AMPK (α1β2γ1) (Promega) with concentrations of the provided AMPK substrate (SAMStide substrate, Promega) ranging from 1 to 15 mg/ml. Following pre-incubation of substrate with kinase for 5 min 10 µM [L2Cu3]^6+, [L2Zn3]^6+ or solvent control and 50 µM ATP was added to start the kinase reaction. For determination of the effects of AMP on AMPK inhibition by [L2Zn3]^6+, the ADP-Glo Kinase Assay (Promega) was performed in presence of varying of AMP (0, 80, 160 μM).

[5] = molecular target: T1, recombinant human AMPK (α1β2γ1); test: ATP competition kinase assay; type: biochemical
Procedure: as §2

[6] = individual run, read-out: IC50 values for each replicate
[7] = mean of at least 3 independent experiments, read-out: Mean IC50
[8] = NP1, 96 h, MTT, individual run, read-out: IC50 values for each replicate
[9] = NP1, 96 h, MTT, mean of at least 3 independent experiments, read-out: Mean IC50
[10] = NP1 non-cancer, read-out: Mean IC50 values

T1 sequence (Q13131 whole entry): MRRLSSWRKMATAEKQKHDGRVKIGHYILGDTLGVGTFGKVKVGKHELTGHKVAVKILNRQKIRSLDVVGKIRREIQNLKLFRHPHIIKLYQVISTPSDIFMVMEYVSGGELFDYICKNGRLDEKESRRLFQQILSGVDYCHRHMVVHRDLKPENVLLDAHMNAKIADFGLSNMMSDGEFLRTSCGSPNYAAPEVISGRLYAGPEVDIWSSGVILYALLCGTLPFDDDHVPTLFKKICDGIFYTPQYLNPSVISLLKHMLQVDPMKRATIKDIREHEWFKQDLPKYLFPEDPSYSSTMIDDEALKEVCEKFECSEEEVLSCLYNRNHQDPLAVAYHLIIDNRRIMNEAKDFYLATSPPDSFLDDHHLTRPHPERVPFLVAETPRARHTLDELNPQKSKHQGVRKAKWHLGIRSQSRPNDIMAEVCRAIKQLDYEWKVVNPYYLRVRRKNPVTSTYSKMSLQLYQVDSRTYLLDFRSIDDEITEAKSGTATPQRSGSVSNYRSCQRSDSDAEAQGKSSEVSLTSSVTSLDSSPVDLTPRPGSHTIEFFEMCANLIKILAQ
T1 sequence (O43741 whole entry partner): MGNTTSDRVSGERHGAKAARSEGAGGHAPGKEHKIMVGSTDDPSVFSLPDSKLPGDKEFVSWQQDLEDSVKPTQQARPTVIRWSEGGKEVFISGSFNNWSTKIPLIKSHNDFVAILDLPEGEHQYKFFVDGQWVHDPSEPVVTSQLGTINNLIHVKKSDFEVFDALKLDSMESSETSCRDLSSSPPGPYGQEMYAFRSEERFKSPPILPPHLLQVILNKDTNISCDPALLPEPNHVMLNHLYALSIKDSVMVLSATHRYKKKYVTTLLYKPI
T1 sequence (P54619 whole entry partner): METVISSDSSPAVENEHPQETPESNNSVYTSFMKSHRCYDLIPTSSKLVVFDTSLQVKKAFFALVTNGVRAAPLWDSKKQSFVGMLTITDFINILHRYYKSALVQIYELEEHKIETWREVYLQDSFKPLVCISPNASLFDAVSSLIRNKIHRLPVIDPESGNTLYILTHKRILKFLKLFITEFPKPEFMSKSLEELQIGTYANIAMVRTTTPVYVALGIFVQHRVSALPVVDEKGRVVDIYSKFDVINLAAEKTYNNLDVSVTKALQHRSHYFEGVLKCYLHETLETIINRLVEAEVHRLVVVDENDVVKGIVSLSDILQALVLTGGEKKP

SMILES	%AMPK Activity Remaining, Mean (data for the bars) ([1]; Substrate 0.5 mg/ml as printed)	%AMPK Activity Remaining, Mean (data for the bars) ([1]; Substrate 20 mg/ml as printed)	%AMPK Activity Remaining, Mean (data for the bars) ([1]; Substrate 200 mg/ml as printed)	%AMPK Activity Remaining, Mean (data for the bars) ([1]; Substrate 500 mg/ml as printed)	IC50 [2, 6]	IC50 [2, 7]	Selectivity Index using the NPI non-cancer cell line [2]	SI (ARPE19) [2]	SI (MCF10A) [2]	SI (NPI) [2]	IC50 [3, 8]	IC50 [3, 9]	IC50 [3, 10]	%AMPK Activity Remaining, Mean ([4]; Substrate 1 mg/ml)	%AMPK Activity Remaining, individual replicates ([4]; Substrate 1 mg/ml)	%AMPK Activity Remaining, Mean ([4]; Substrate 2.5 mg/ml)	%AMPK Activity Remaining, individual replicates ([4]; Substrate 2.5 mg/ml)	%AMPK Activity Remaining, Mean ([4]; Substrate 5 mg/ml)	%AMPK Activity Remaining, individual replicates ([4]; Substrate 5 mg/ml)	%AMPK Activity Remaining, Mean ([4]; Substrate 10 mg/ml)	other results
[Cu+2].[Cu+2].[Cu+2].c1ccc(-c2csc(NCCN(CCNc3nc(-c4ccccn4)cs3)CCNc3nc(-c4ccccn4)cs3)n2)nc1.c1ccc(-c2csc(NCCN(CCNc3nc(-c4ccccn4)cs3)CCNc3nc(-c4ccccn4)cs3)n2)nc1 [[L2Cu3]6+]	34.60%	17.00%	25.40%	17.20%	5.37 µM and 4.48 µM and 5.08 µM	4.97 µM	8.67	10.59	9.71	8.67	39.3 µM and 45.1 µM and 44.8 µM	43.1 µM	43.1 µM	34.60%	16.20% and 28.30% and 59.40%	20.90%	15.60% and 15.00% and 32.00%	17.00%	18.00% and 15.40% and 17.70%	25.40%	IC50 ([2]; mean of at least 3 independent experiments, listed as [L2Cu3]^6+, read-out: Mean IC50): > 1 µM; %AMPK Activity Remaining, individual replicates ([4]; Substrate 10 mg/ml): 26.20% and 21.60% and 28.40%; %AMPK Activity Remaining, Mean ([4]; Substrate 15 mg/ml): 17.20%; %AMPK Activity Remaining, individual replicates ([4]; Substrate 15 mg/ml): 13.60% and 12.90% and 25.20%; % Activity remaining compared to 100% DMSO controls, individual replicates ([5]; ATP conc 0.5 µM): 12.56% and 14.65% and 16.05%; Mean Activity (%) remaining compared to 100% DMSO controls ([5]; ATP conc 0.5 µM): 14.42%; % Activity remaining compared to 100% DMSO controls, individual replicates ([5]; ATP conc 2 µM): 15.11% and 18.68% and 17.31%; Mean Activity (%) remaining compared to 100% DMSO controls ([5]; ATP conc 2 µM): 17.03%; % Activity remaining compared to 100% DMSO controls, individual replicates ([5]; ATP conc 20 µM): 12.85% and 11.15% and 12.56%; Mean Activity (%) remaining compared to 100% DMSO controls ([5]; ATP conc 20 µM): 12.19%; % Activity remaining compared to 100% DMSO controls, individual replicates ([5]; ATP conc 200 µM): 10.11% and 10.01% and 10.69%; Mean Activity (%) remaining compared to 100% DMSO controls ([5]; ATP conc 200 µM): 10.27%; % Activity remaining compared to 100% DMSO controls, individual replicates ([5]; ATP conc 500 µM): 20.03% and 18.99% and 20.22%; Mean Activity (%) remaining compared to 100% DMSO controls ([5]; ATP conc 500 µM): 19.74%
CC(=O)[O-].CC(=O)[O-].CC(=O)[O-].CC(=O)[O-].CC(=O)[O-].CC(=O)[O-].[Zn+2].[Zn+2].[Zn+2].c1ccc(-c2csc(NCCN(CCNc3nc(-c4ccccn4)cs3)CCNc3nc(-c4ccccn4)cs3)n2)nc1.c1ccc(-c2csc(NCCN(CCNc3nc(-c4ccccn4)cs3)CCNc3nc(-c4ccccn4)cs3)n2)nc1 [[L2Zn3]6+]	42.90%	39.40%	43.70%	35.80%	3.23 µM and 4.44 µM and 4.32 µM	4 µM	1.95	39.31	40.41	1.95	5.77 µM and 8.9 µM and 8.86 µM	7.78 µM	7.78 µM	42.90%	57.40% and 31.37% and 37.80% and 44.50%	28.10%	30.60% and 40.90% and 18.40% and 22.50%	39.40%	31.50% (2×) and 56.70% (2×) and 25.70% (2×) and 43.60% (2×)	43.70%	IC50 ([2]; mean of at least 3 independent experiments, listed as [L2Zn3]^6+, read-out: Mean IC50): > 1 µM; %AMPK Activity Remaining, individual replicates ([4]; Substrate 10 mg/ml): 40.20% and 42.80% and 35.20% and 56.50%; %AMPK Activity Remaining, Mean ([4]; Substrate 15 mg/ml): 35.80%; %AMPK Activity Remaining, individual replicates ([4]; Substrate 15 mg/ml): 33.30% and 26.60% and 47.50%; % Activity remaining compared to 100% DMSO controls, individual replicates ([5]; ATP conc 0.5 µM): 17.76% and 11.76% and 14.76%; Mean Activity (%) remaining compared to 100% DMSO controls ([5]; ATP conc 0.5 µM): 14.76%; % Activity remaining compared to 100% DMSO controls, individual replicates ([5]; ATP conc 2 µM): 15.06% and 12.57% and 9.46%; Mean Activity (%) remaining compared to 100% DMSO controls ([5]; ATP conc 2 µM): 12.36%; % Activity remaining compared to 100% DMSO controls, individual replicates ([5]; ATP conc 20 µM): 16.58% and 14.33% and 12.68%; Mean Activity (%) remaining compared to 100% DMSO controls ([5]; ATP conc 20 µM): 14.53%; % Activity remaining compared to 100% DMSO controls, individual replicates ([5]; ATP conc 200 µM): 16.91% and 18.22% and 15.98%; Mean Activity (%) remaining compared to 100% DMSO controls ([5]; ATP conc 200 µM): 17.04%; % Activity remaining compared to 100% DMSO controls, individual replicates ([5]; ATP conc 500 µM): 15.73% and 11.81% and 15.83%; Mean Activity (%) remaining compared to 100% DMSO controls ([5]; ATP conc 500 µM): 14.46%
